Several values for one entry are separate records, joined by “and”; a condition that tells them apart may be missing. Identical values can stand only once.
System: influenza A/Singapore/1/57 virus
Experiment: microbe, parasite or virus in culture
Assay type: cell-based
Conditions: for Percent of inhibition of OD 490: two values: A series, D series, added 30 min prior to infection
[1] = Influenza A virus, MDCK, read-out: percent of inhibition of viral reproduction

## NC12CC3CC(CC(C3)C1)C2 [Amantadin]
Amantadin 5 μg/ml alone (A or D 0 μg/ml)
  Percent of inhibition of OD 490: 50% and 30%
Amantadin 10 μg/ml alone (A or D 0 μg/ml)
  Percent of inhibition of OD 490: 56% and 38%

## CC(N)C12CC3CC(CC(C3)C1)C2 (centres unmarked) [Remantadin]
Remantadin 5 μg/ml alone (A or D 0 μg/ml)
  Percent of inhibition of OD 490: 56% and 41%
Remantadin 10 μg/ml alone (A or D 0 μg/ml)
  Percent of inhibition of OD 490: 59% and 40%

## NC(=O)c1ncn([C@@H]2O[C@H](CO)[C@@H](O)[C@H]2O)n1 [Ribavirin]
[1]
  inhibition at 1 µg/mL: 5%
  inhibition at 3 µg/mL: 25%
  inhibition at 10 µg/mL: 30%
  inhibition at 15 µg/mL: 38%

Source: US20090326037A1 (priority 2005, published 2009)
